Where a chain is given by its changes, count along the chain named.
Columns and labels:
hPIF1HD V258L = target: T1, hPIF1HD V258L (Homo sapiens, UniProt Q9H611, V258L); assay: ssDNA d(T)55 binding assay (EMSA), hPIF1HD V258L variant; conditions: 0.25 nM d(T)55, 2 nM protein, 5 mM AMP-PNP, 0.0078–2 mM compound; read-out: IC50 for inhibition of ssDNA binding, V258L
T1 construct: The human PIF1 helicase domain and mutants (hPIF1HD, residues 206–620); hexa-histidine tag (N, cleaved yes); made in house; host or cells: ArcticExpress BL21(DE3) E. coli (Agilent Technologies)
T1 sequence (Q9H611 206-620 V258L): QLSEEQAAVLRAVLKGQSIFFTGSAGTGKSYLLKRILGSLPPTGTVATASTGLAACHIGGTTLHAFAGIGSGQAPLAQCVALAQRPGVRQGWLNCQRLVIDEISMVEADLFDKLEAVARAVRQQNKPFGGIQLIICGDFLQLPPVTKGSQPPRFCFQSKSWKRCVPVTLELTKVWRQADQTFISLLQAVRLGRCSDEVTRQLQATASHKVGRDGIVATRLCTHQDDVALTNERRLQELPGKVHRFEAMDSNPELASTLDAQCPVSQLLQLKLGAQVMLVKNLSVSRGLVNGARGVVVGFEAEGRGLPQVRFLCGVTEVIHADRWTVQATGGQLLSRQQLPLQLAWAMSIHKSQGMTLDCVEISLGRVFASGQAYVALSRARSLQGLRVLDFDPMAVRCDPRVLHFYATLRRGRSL
Experimental: (§1) DNA binding of hPIF1HD was assayed using a ^32P-5′ end-labelled oligo d(T)55 substrate (0.25 nM), under the same buffer conditions described for helicase assays, but with AMP-PNP instead of ATP. Reaction products were resolved on 5% poly-acrylamide gels (29:1 acrylamide:bis-acrylamide) using 0.25× TBE running buffer ([19],[28]). Gels were processed and reaction products quantified by phosphorimaging and IC50 values determined as described above.
(§2) In hPIF1HD/AMP-PNP/1 there are no direct hydrogen bonds between amino acid side chains and 1, however, Val 258 from domain 1A is making van der Waals interaction (<3.8 Å) with the amide group at one end of the molecule (Figure 1). From the structural data, we reasoned that substitution of the Val 258 with alanine (V258A) would increase the size of the binding pocket and its accessibility to ligand, while substitution with leucine (V258L) would decrease pocket size and possibly instigate a clash with Lys 556, disrupting interactions with compound 1 or derivatives. Accordingly, we purified hPIF1HD V258A and V258L variant forms and analysed ssDNA d(T)55 binding in the presence of SMIs, using EMSA as above.
(§3) Supplementary Figure 12. hPIF1HD variants V258A and V258L ssDNA binding IC50 determination by EMSA with selected SMIs. All binding reactions were assembled under helicase reaction conditions but with 0.25 nM radiolabelled oligo d(T)55, and 5 mM AMP-PNP. (A) DNA binding activity of wild type and mutant proteins was assessed by EMSA without inhibitors. […] 1D: Wild type (WT), V258A and V258L, not determined. 2: WT, 224 ± […]; V258A, 103 ± 31 µM; V258L, 304 ± 88 µM. 5: WT, 198 ± 54 µM; V258A, 79.2 ± 27 µM; V258L, 414 ± 45 µM. 6: WT, 722 ± 194 µM; V258A, 295 ± 116 µM; V258L, 1010 ± 282 µM. 10: WT, 224 ±59 µM; V258A, 152 ± 42 µM; V258L, 378 ± 99 µM. 11: WT, 284 ± 110 µM; V258A, 151 ± 51 µM; V258L, 551 ± 215 µM.

hPIF1HD V258A = target: T2, hPIF1HD V258A (Homo sapiens, UniProt Q9H611, V258A); assay: ssDNA d(T)55 binding assay (EMSA), hPIF1HD V258A variant; conditions: 0.25 nM d(T)55, 2 nM protein, 5 mM AMP-PNP, 0.0078–2 mM compound; read-out: IC50 for inhibition of ssDNA binding, V258A
T2 construct: The human PIF1 helicase domain and mutants (hPIF1HD, residues 206–620); hexa-histidine tag (N, cleaved yes); made in house; host or cells: ArcticExpress BL21(DE3) E. coli (Agilent Technologies)
T2 sequence (Q9H611 206-620 V258A): T1 sequence (Q9H611 206-620 V258L) with L53A
Experimental: as §1, §2, §3

| SMILES | IC50 (hPIF1HD V258L) [µM] | IC50 (hPIF1HD V258A) [µM] |
| --- | --- | --- |
| CC(=O)c1ccc(-c2csc(N)n2)cc1 [Compound 2] | 304 ± 88 | 103 ± 31 |
| N#Cc1ccc(-c2csc(N)n2)cc1 [Compound 5] | 414 ± 45 | 79.2 ± 27 |
| Nc1nc(-c2ccc(C(=O)c3ccccc3)cc2)cs1 [Compound 6] | 1010 ± 282 | 295 ± 116 |
| CC(=O)Nc1ccc(-c2csc(N)n2)cc1-c1ccc(C)cc1 [Compound 10] | 378 ± 99 | 152 ± 42 |
| CC(=O)Nc1ccc(-c2csc(N)n2)cc1C1=CCNCC1 [Compound 11] | 551 ± 215 | 151 ± 51 |
